Each structure is given as a SMILES string.

By IC50 is commonly meant the concentration needed to halve the response being measured. A low value points to greater potency in that assay.

This experiment concerns the target EGFR (UniProt P00533).

Sequence of EGFR (P00533 whole entry, looked up): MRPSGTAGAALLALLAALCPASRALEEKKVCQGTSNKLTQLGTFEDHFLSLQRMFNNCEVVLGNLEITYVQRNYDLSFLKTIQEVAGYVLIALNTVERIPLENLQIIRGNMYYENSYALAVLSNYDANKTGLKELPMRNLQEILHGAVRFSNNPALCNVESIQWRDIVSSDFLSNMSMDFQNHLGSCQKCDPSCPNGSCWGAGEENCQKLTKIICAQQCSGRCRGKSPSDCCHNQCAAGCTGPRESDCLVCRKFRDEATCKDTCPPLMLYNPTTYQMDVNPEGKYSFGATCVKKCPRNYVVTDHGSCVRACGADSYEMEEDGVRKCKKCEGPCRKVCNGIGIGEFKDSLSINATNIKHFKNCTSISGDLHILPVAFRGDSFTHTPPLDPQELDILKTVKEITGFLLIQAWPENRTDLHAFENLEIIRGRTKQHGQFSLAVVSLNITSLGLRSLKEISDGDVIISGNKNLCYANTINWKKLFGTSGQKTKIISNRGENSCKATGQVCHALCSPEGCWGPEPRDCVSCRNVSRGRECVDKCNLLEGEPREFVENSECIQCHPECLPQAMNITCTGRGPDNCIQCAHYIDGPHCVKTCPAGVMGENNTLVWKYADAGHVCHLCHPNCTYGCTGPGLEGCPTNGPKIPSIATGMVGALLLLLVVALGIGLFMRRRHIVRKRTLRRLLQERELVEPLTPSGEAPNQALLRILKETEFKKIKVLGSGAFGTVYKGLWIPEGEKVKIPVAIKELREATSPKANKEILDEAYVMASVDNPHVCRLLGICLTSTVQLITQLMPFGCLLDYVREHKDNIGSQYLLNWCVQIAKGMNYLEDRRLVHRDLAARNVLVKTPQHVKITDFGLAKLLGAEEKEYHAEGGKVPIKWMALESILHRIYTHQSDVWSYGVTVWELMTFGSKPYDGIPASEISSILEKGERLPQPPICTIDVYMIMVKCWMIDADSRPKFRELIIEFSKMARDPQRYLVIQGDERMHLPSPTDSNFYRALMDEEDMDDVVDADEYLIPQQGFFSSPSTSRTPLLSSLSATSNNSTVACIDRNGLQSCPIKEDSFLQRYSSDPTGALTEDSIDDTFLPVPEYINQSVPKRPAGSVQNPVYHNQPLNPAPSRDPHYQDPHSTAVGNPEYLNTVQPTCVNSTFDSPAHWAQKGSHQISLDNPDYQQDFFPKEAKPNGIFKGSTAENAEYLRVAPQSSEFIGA

`COc1cc2c(Nc3ccc(Cl)c(Cl)c3)ncnc2cc1OCc1noc(OCc2ccccc2)n1` registered an IC50 of less than 0.05 µM.
To `COc1cc2c(Nc3ccc(Cl)c(Cl)c3)ncnc2cc1OCc1cc(Br)cc(Br)c1` belongs 0.05 to 1 µM; to `COc1cc2c(Nc3ccc(Cl)c(Cl)c3)ncnc2cc1OCC1CNCC(C)(C)O1` (stereo unspecified), less than 0.05 µM; to `COc1cc2c(Nc3ccc(Cl)c(Cl)c3)ncnc2cc1OCC1CN2CCOCC2CO1` (stereo unspecified), less than 0.05 µM.
To `COc1cc2c(Nc3ccc(Br)c(Cl)c3Cl)ncnc2cc1OC[C@H]1C[C@@H]2CN(C)C[C@@H]2C1` belongs less than 0.05 µM.
With `COc1cc2c(Nc3ccc(Cl)c(Cl)c3)ncnc2cc1OCC1CN(c2ccncc2)CCO1` (stereo unspecified), the IC50 is less than 0.05 µM.
To `COc1cc2c(Nc3cc(C)cc(C)c3)ncnc2cc1O[C@@H]1CO[C@@H]2[C@H]1OC[C@H]2F` belongs less than 0.05 µM; to `COc1cc2c(Nc3ccc(F)c(Cl)c3)ncnc2cc1OCC1CN(C)CCO1` (stereo unspecified), less than 0.05 µM.
To `COc1cc2c(Nc3ccc(Br)cc3Cl)ncnc2cc1OCC1CN(C)CCO1` (stereo unspecified) belongs less than 0.05 µM.
To `COc1cc2c(Nc3ccc(Br)c(Cl)c3)ncnc2cc1OC1CCN(C)C1` (stereo unspecified) belongs less than 0.05 µM.
`COc1cc2c(Nc3ccc(Cl)c(Cl)c3)ncnc2cc1OCc1nc2c(s1)CN(C)CC2` showed an IC50 of less than 0.05 µM.
The figure for `COc1cc2c(Nc3ccc(Cl)c(Cl)c3)ncnc2cc1OCC1CN(CC2CC2)CCCO1` (stereo unspecified) is less than 0.05 µM.
The figure for `COc1cc2c(Nc3ccc(Cl)c(Cl)c3)ncnc2cc1OCCC1CN(C)CC(C)(C)O1` (stereo unspecified) is less than 0.05 µM; for `COc1cc2c(Nc3ccc(Br)c(Cl)c3F)ncnc2cc1OC[C@@H]1CN(C)CC(=O)N1C` it is less than 0.05 µM.
The figure for `COc1cc2c(Nc3ccc(Br)cc3F)ncnc2cc1OCC1CCN(C(N)=NC#N)CC1` is less than 0.05 µM.
The compound `COc1cc2c(Nc3ccc(Br)c(Cl)c3)ncnc2cc1O[C@H]1CO[C@@H]2[C@H]1OC[C@@H]2NS(C)(=O)=O` registered a half-inhibitory concentration (IC50) of less than 0.05 µM.
`COc1cc2c(Nc3ccc(Br)c(Cl)c3)ncnc2cc1O[C@H]1CO[C@@H]2CCO[C@H]12` returned a 50% inhibitory concentration (IC50) of less than 0.05 µM.
To `COc1cc2c(Nc3ccc(Br)c(Cl)c3)ncnc2cc1O[C@@H]1CO[C@@H]2[C@H]1OC[C@H]2NS(C)(=O)=O` belongs less than 0.05 µM; to `COc1cc2c(Nc3ccc(Cl)c(Cl)c3)ncnc2cc1OCC1CN(C(C)C)CCO1` (stereo unspecified), less than 0.05 µM.
The figure for `COc1cc2c(Nc3ccc(C(F)(F)F)cc3Br)ncnc2cc1O[C@@H]1CO[C@@H]2[C@H]1OC[C@H]2F` is less than 0.05 µM; for `COc1cc2c(Nc3ccc(F)cc3C(F)(F)F)ncnc2cc1O[C@@H]1CO[C@@H]2[C@H]1OC[C@H]2F` it is less than 0.05 µM; for `COc1cc2c(Nc3ccc(Cl)c(Cl)c3)ncnc2cc1OCc1nc(CN2CCN(C)CC2)cs1` it is less than 0.05 µM.
The figure for `COc1cc2c(Nc3ccc(Br)c(Cl)c3F)ncnc2cc1OCC1CN(C)C(C)(C)CO1` (stereo unspecified) is less than 0.05 µM; for `COc1cc2c(Nc3ccc(Cl)cc3F)ncnc2cc1O[C@@H]1CO[C@@H]2[C@H]1OC[C@H]2F` it is less than 0.05 µM.
`COc1cc2c(Nc3ccc(Cl)c(Cl)c3)ncnc2cc1OCC1CN(S(=O)(=O)Cc2ccccc2)CCO1` (stereo unspecified) had a concentration for half-maximal inhibition (IC50) of less than 0.05 µM.
To `COc1cc2c(Nc3ccc(Cl)c(Cl)c3)ncnc2cc1OCc1csc(C2CCCNC2)n1` (stereo unspecified) belongs less than 0.05 µM.
The figure for `COc1cc2c(Nc3ccc(Cl)c(Cl)c3)ncnc2cc1OCC1CC2CCC(C1)N2C` (stereo unspecified) is less than 0.05 µM; for `COc1cc2c(Nc3ccc(Cl)c(Cl)c3)ncnc2cc1OCc1nc2c(s1)CNCC2` it is less than 0.05 µM.
Regarding `CCOc1cc2c(Nc3ccc(Cl)c(Cl)c3)ncnc2cc1OCC1CNCCO1` (stereo unspecified), the half-maximal inhibitory concentration (IC50) is less than 0.05 µM.
As to `COc1cc2c(Nc3ccc(Cl)c(Cl)c3F)ncnc2cc1O[C@@H]1CO[C@@H]2[C@H]1OC[C@H]2F`, the IC50 was less than 0.05 µM.
To `COc1cc2c(Nc3ccc(Cl)c(Cl)c3)ncnc2cc1OCC1CN(C(=O)CCc2ccccc2)CCO1` (stereo unspecified) belongs less than 0.05 µM.
The figure for `COc1cc2c(Nc3ccc(Cl)c(Cl)c3)ncnc2cc1OCC1CN(Cc2ccccn2)CCO1` (stereo unspecified) is less than 0.05 µM; for `C=CCN1CCOC(COc2cc3ncnc(Nc4ccc(Cl)c(Cl)c4)c3cc2OC)C1` (stereo unspecified) it is less than 0.05 µM.
To `COc1cc2c(Nc3ccc(F)c(F)c3)ncnc2cc1O[C@@H]1CO[C@@H]2[C@H]1OC[C@H]2F` belongs less than 0.05 µM.
In turn, `COc1cc2c(Nc3ccc(Cl)c(Cl)c3F)ncnc2cc1OCC1CN(C)C(C)(C)CO1` (stereo unspecified) showed a 50% inhibitory concentration (IC50) of less than 0.05 µM.
To `COc1cc(Nc2ncnc3cc(O[C@@H]4CO[C@@H]5[C@H]4OC[C@H]5F)c(OC)cc23)c(OC)cc1Cl` belongs less than 0.05 µM.
To `COc1cc2c(Nc3ccc(Cl)c(Cl)c3)ncnc2cc1OCc1csc(C2CCN(C)CC2)n1` belongs less than 0.05 µM.
The figure for `COc1cc2c(Nc3ccc(Br)c(Cl)c3F)ncnc2cc1O[C@H]1CO[C@H]2[C@@H]1OC[C@@H]2OC` is less than 0.05 µM; for `COc1cc2c(Nc3ccc(Cl)c(Cl)c3)ncnc2cc1OCC1CN(C2CCCC2)CCO1` (stereo unspecified) it is less than 0.05 µM; for `COc1cc2c(Nc3ccc(F)c(C(F)(F)F)c3)ncnc2cc1O[C@@H]1CO[C@@H]2[C@H]1OC[C@H]2F` it is less than 0.05 µM.
`COc1cc2c(Nc3ccc(Cl)c(Cl)c3)ncnc2cc1OCc1ccc2nc(C(F)(F)F)cc(Cl)c2c1` returned an IC50 of 0.05 to 1 µM.
The figure for `COc1cc2c(Nc3ccc(Cl)c(Cl)c3)ncnc2cc1OCC1CN(CCCCF)CCO1` (stereo unspecified) is less than 0.05 µM; for `COc1cc2c(Nc3ccc(Cl)c(Cl)c3)ncnc2cc1OCc1csc(N2CCN(C)CC2)n1` it is less than 0.05 µM.
The figure for `CCN(CC)[C@H]1CO[C@@H]2[C@H]1OC[C@@H]2Oc1cc2ncnc(Nc3ccc(Br)c(Cl)c3)c2cc1OC` is less than 0.05 µM; for `COc1cc2c(Nc3cc(Cl)c(Br)cc3F)ncnc2cc1O[C@@H]1CO[C@@H]2[C@H]1OC[C@H]2F` it is less than 0.05 µM.
To `CCN1CCCCC1c1nc(COc2cc3ncnc(Nc4ccc(Cl)c(Cl)c4)c3cc2OC)cs1` (stereo unspecified) belongs less than 0.05 µM; to `COc1cc2c(Nc3ccc(Cl)cc3Cl)ncnc2cc1O[C@@H]1CO[C@@H]2[C@H]1OC[C@H]2F`, less than 0.05 µM; to `COc1cc2c(Nc3ccc(Cl)c(Cl)c3)ncnc2cc1OCC1CN(CCCCCCO)CCO1` (stereo unspecified), less than 0.05 µM.
In the case of `COc1cc2c(Nc3ccc(Cl)c(Cl)c3)ncnc2cc1OC[C@H]1C[C@@H]2CN(C)C[C@@H]2C1`, the 50% inhibitory concentration (IC50) is less than 0.05 µM.
As for `COc1cc2c(Nc3ccc(C)c(Br)c3)ncnc2cc1O[C@@H]1CO[C@@H]2[C@H]1OC[C@H]2F`, the concentration for half-maximal inhibition (IC50) is less than 0.05 µM.
The figure for `COc1cc2c(Nc3cccc(Cl)c3F)ncnc2cc1O[C@@H]1CO[C@@H]2[C@H]1OC[C@H]2F` is less than 0.05 µM; for `CCCCCN1CCOC(COc2cc3ncnc(Nc4ccc(Cl)c(Cl)c4)c3cc2OC)C1` (stereo unspecified) it is less than 0.05 µM.
Turning to `CCN1CCc2nc(COc3cc4ncnc(Nc5ccc(Cl)c(Cl)c5)c4cc3OC)sc2C1`, the concentration for half-maximal inhibition (IC50) is less than 0.05 µM.
The figure for `CCN1CCCCC1c1nc(COc2cc3ncnc(Nc4ccc(Cl)c(Cl)c4)c3cc2OC)no1` (stereo unspecified) is less than 0.05 µM; for `COc1cc2c(Nc3ccc(Cl)c(Cl)c3)ncnc2cc1OCc1noc(C2CCN(C(=O)OC(C)(C)C)CC2)n1` it is less than 0.05 µM.
To `COc1cc2c(Nc3cc(Cl)c(Br)cc3F)ncnc2cc1OCC1CO[C@@H]2[C@@H](OC)CO[C@H]12` (stereo partly specified) belongs less than 0.05 µM; to `COc1cc2c(Nc3cc(Cl)c(Cl)cc3F)ncnc2cc1OCC1CN(C)C(C)(C)CO1` (stereo unspecified), less than 0.05 µM; to `COc1cc2c(Nc3ccc(Cl)c(Cl)c3)ncnc2cc1OCC1CN(Cc2ccc(F)cc2)CCO1` (stereo unspecified), less than 0.05 µM.
The figure for `CCC(CC)CN1CCOC(COc2cc3ncnc(Nc4ccc(Cl)c(Cl)c4)c3cc2OC)C1` (stereo unspecified) is less than 0.05 µM; for `COc1cc2c(Nc3ccc(Cl)c(Cl)c3)ncnc2cc1OCc1nc(-c2ccc(O)c(C(N)=O)c2)cs1` it is less than 0.05 µM; for `CCC(=O)CN1CCOC(COc2cc3ncnc(Nc4ccc(Cl)c(Cl)c4)c3cc2OC)C1` (stereo unspecified) it is less than 0.05 µM.

The record behind these values is the Kinase Knowledgebase extract (Sharma et al. 2016).
